Values quoted from earlier work, collected in patent publication US20060280815A1, “Nutritional composition which promotes weight loss, burns calories, increases thermogenesis, supports energy metabolism and/or suppresses appetite” (priority 2004, published 2006).

Settings: people with type 2 diabetes; acute abstention from caffeine

Cn1c(=O)c2c(ncn2C)n(C)c1=O [caffeine]
reduction of postprandial glucose levels: 21%
